# Values of other authors as cited in patent US6051591A, “Diazabicyclooctane derivatives” (Merck Sharp & Dohme Ltd., priority 1995, dated 2000).
# How the values were obtained:
# [1] = tested on: human 5-HT1Dα and 5-HT1Dβ receptor subtypes; conditions: cf. WO-A-91/17174, Table 1
# [2] = therapeutic doses
compound,measurement,setting,value
CNS(=O)(=O)Cc1ccc2[nH]cc(CCN(C)C)c2c1 [sumatriptan],discrimination between human 5-HT1Dα and 5-HT1Dβ receptor subtypes,[1],barely discriminates
same,adverse cardiovascular events in humans,[2],certain adverse cardiovascular events
